How the values were obtained:
normal rats [1] = assay: Induction of stereotyped behaviour in normal rats (stereotypy scoring); type: in vivo, rat; conditions: for stereotypy (overall effect): male Wistar rats, all doses tested; for stereotypy (overall effect) / onset of stereotypy: s.c.; for duration of stereotypy: 300 min experiment; for onset of stereotypy: 10 mg/kg stated for (S,S′),(S,R′)-amphetaminil; for differences in overall stereotypy between groups: total stereotypy score, 0.1-10 mg/kg s.c. vs vehicle
Protocol: (§1) Male Wistar rats (n=4 per group) were randomly allocated to each drug treatment group. Drugs were administered such that, with the exception of fusaric acid, each rat in each group received all doses of the drug or vehicle in a semi random manner according to the modified Latin Square in Table 1. Compounds were administered at the doses: 0.1, 1 and 10 mg/kg s.c. in 100% DMS0 (vehicle). Amphetamine was administered at 0.1, 1 and 5 mg/kg s.c. in saline (vehicle). Fusaric acid was administered at 20, 40 and 80 mg/kg s.c. in saline (vehicle). Rats received each dose of fusaric acid (20, 40 and 80 mg/kg), doses given in order, starting with vehicle. A one-week interval was provided between doses.
(§2) At the start of the experiment, rats were placed in standard perspex behaviour boxes with a visible grid on the floor to allow determination of locomotor activity. The animals were allowed to acclimatise to their environment for 1 hour prior to drug/saline administration. Following drug administration animals were returned to the behaviour cages and locomotor activity was assessed for a further 5 hours or until baseline (zero activity for 30 minutes) was achieved, whichever was sooner. Locomotor activity was assessed by videoing the rats throughout the experiment, and counting the number of times a rat crossed a grid line during a period of 5 minutes every 10 minutes. Throughout the experiment animals were scored for stereotyped behaviours for 15 seconds every 10 minutes by a trained observer using the scoring methods described in Table 2.
The mean and standard error for stereotypy activity for 15 seconds every 10 minutes for each rat at each time point was determined. […] Cumulative activity during the 300 min was also calculated, and the effect of dose of drug was analyzed by Kruskall Wallis one-way ANOVA (GraphPad Prizm). Data was also analysed for significant fit to a sigmoidal-shaped log dose-response curve using non-linear regression analysis (GraphPad Prizm)

normal rats [2] = assay: Locomotor activity in normal rats (grid line crossings); type: in vivo, rat; conditions: for cumulative locomotor activity: vs vehicle; for locomotor activity (overall effect): male Wistar rats, all doses tested
Protocol: as §1, §2
The mean and standard error for locomotor activity over 10 minutes for each rat at each time point was determined. […] Cumulative activity, during the 300 min was also calculated, and the effect of dose of drug was analyzed by one-way repeated measures ANOVA followed by Dunnett's t-test (GraphPad Prizm). Data was also analysed for significant fit to a sigmoidal-shaped log dose-response curve using non-linear regression analysis (GraphPad Prizm).

[3] = tested on: children with hyperkinetic syndrome; conditions: Pacit et al., 1996; cited from earlier work

SMILES: CC(N)Cc1ccccc1 (centres unmarked) [Amphetamine]
- overall stereotypy during the 300 min duration of the experiment (normal rats [1]; 5 mg/kg s.c.): tended to increase
- stereotypy (overall effect) (normal rats [1]): log dose-related increase stereotypy
- onset of locomotor activity (normal rats [2]; 5 mg/kg s.c.): rapid
- time of maximum effect on locomotor activity after administration (normal rats [2]; 5 mg/kg s.c.): 30 min
- cumulative locomotor activity (normal rats [2]; 5 mg/kg s.c., over the duration of the experiment): significantly increased
- locomotor activity (overall effect) (normal rats [2]; s.c.): dose-related increase in locomotor activity

SMILES: C[C@@H](Cc1ccccc1)NC(C#N)c1ccccc1 (stereo partly drawn) [(S,S′),(S,R′)-Amphetaminil, alpha-[(1S-Methyl-2-phenylethyl)amino]benzeneacetonitrile]
- share of the racemate's pharmacological activity, total stereotypy score (FIGS. 7B and 8B) (normal rats [1]; 1 mg/kg): responsible for nearly all of the pharmacological activity of the racemate
- peak of stereotypy (normal rats [1]; 10 mg/kg s.c.): 100 min
- duration of stereotypy (normal rats [1]; 10 mg/kg s.c.): sustained during the 300 min duration of the experiment
- stereotypy (overall effect) (normal rats [1]): increased stereotypy in a log dose-related manner
- onset of stereotypy (normal rats [1]): rapid
- differences in overall stereotypy between groups (normal rats [1]): did not reach statistical significance
- share of the racemate's pharmacological activity, cumulative locomotor activity (FIGS. 3B and 4B) (normal rats [2]; 1 mg/kg): responsible for nearly all of the pharmacological activity of the racemate
- cumulative locomotor activity (normal rats [2]; 10 mg/kg s.c.): significant effect
- locomotor activity (overall effect) (normal rats [2]; s.c.): increased locomotor activity in a dose-related manner
- onset of locomotor activity after administration (normal rats [2]; s.c.): ≤ 30 min
- peak of locomotor activity (normal rats [2]; s.c.): 60 min

SMILES: CC(Cc1ccccc1)NC(C#N)c1ccccc1 (racemic) [Racemic amphetaminil, alpha-[(1-methyl-2-phenylethyl)amino]benzeneacetonitrile]
- duration of stereotypy (normal rats [1]; 10 mg/kg s.c.): sustained for the duration of the experiment
- stereotypy (overall effect) (normal rats [1]): increased stereotypy in a log dose-related manner
- onset of stereotypy (normal rats [1]): rapid
- differences in overall stereotypy between groups (normal rats [1]): did not reach statistical significance
- efficacy in the treatment of ADHD in children [3]: efficacy
- locomotor activity (overall effect) (normal rats [2]; s.c.): increased locomotor activity only at the highest dose of 10 mg/kg
